Reference: patent US11319299B2, “Substituted carboxamides as inhibitors of WDR5 protein-protein binding” (PROPELLON THERAPEUTICS INC., priority 2016, dated 2022)
pKd: −log10 of the molar value.

Biological target: WDR5 (Homo sapiens (Human), UniProt P61964)
Test: Surface Plasmon Resonance (SPR) assay, KD and residence time
Type: binding
Details: surface plasmon resonance (SPR) assay; read-out: WDR5 binding affinity (KD)

| pKd | Structure (SMILES) |
| --- | --- |
| 9.17 | Cc1cnc(N2CCC=C(c3cc(NC(=O)c4c[nH]c(=O)cc4C(F)(F)F)c(N4C[C@@H](C)N(C)[C@@H](C)C4)cc3F)C2)nc1 [Example 376, N-[4-fluoro-5-[1-(5-methylpyrimidin-2-yl)-3,6-dihydro-2H-pyridin-5-yl]-2-[(3R,5S)-3,4,5-trimethylpiperazin-1-yl]phenyl]-6-oxo-4-(trifluoromethyl)-1H-pyridine-3-carboxamide] |
| 6.69 | COc1ccccc1C(=O)Nc1cc(-c2cnc(N3CCOCC3)nc2)c(F)cc1N1C[C@@H](C)N(C)[C@@H](C)C1 [Example 86, N-[4-fluoro-5-(2-morpholin-4-ylpyrimidin-5-yl)-2-[(3R,5S)-3,4,5-trimethylpiperazin-1-yl]phenyl]-2-methoxybenzamide] |
| 8.06 | C[C@@H]1CN(c2cc(F)c(-c3cncc(OCC4CC4)c3)cc2NC(=O)c2c[nH]c(=O)cc2C(F)(F)F)C[C@H](C)N1C [Example 156, N-[5-[5-(cyclopropylmethoxy)pyridin-3-yl]-4-fluoro-2-[(3R,5S)-3,4,5-trimethylpiperazin-1-yl]phenyl]-6-oxo-4-(trifluoromethyl)-1H-pyridine-3-carboxamide] |
| < 6.70 | CC(=O)Nc1cccc(C(=O)Nc2cc(-c3cnc(N4CCOCC4)nc3)c(F)cc2N2C[C@@H](C)N(C)[C@@H](C)C2)c1 [Example 115, 3-acetamido-N-[4-fluoro-5-(2-morpholin-4-ylpyrimidin-5-yl)-2-[(3R,5S)-3,4,5-trimethylpiperazin-1-yl]phenyl]benzamide] |
| 8.20 | C[C@@H]1CN(c2cc(F)c(C3=CCN(CCC(F)(F)F)CC3)cc2NC(=O)c2c[nH]c(=O)cc2C(F)(F)F)C[C@H](C)N1C [Example 152, N-[4-fluoro-2-[(3R,5S)-3,4,5-trimethylpiperazin-1-yl]-5-[1-(3,3,3-trifluoropropyl)-3,6-dihydro-2H-pyridin-4-yl]phenyl]-6-oxo-4-(trifluoromethyl)-1H-pyridine-3-carboxamide] |
| 8.46 | C[C@@H]1CN(c2cc(F)c(C3=CCN(C4CCN(C)CC4)CC3)cc2NC(=O)c2c[nH]c(=O)cc2C(F)(F)F)C[C@H](C)N1C [Example 242, N-[4-fluoro-5-[1-(1-methylpiperidin-4-yl)-3,6-dihydro-2H-pyridin-4-yl]-2-[(3R,5S)-3,4,5-trimethylpiperazin-1-yl]phenyl]-6-oxo-4-(trifluoromethyl)-1H-pyridine-3-carboxamide] |
| 8.64 | Cc1cc(C)nc(N2CC=C(c3cc(NC(=O)c4c[nH]c(=O)cc4C(F)(F)F)c(N4C[C@@H](C)N(C)[C@@H](C)C4)cc3F)CC2)n1 [Example 368, N-[5-[1-(4,6-dimethylpyrimidin-2-yl)-3,6-dihydro-2H-pyridin-4-yl]-4-fluoro-2-[(3R,5S)-3,4,5-trimethylpiperazin-1-yl]phenyl]-6-oxo-4-(trifluoromethyl)-1H-pyridine-3-carboxamide] |
| 8.55 | C[C@@H]1CN(c2cc(F)c(C3=CCN(Cc4nccs4)CC3)cc2NC(=O)c2c[nH]c(=O)cc2C(F)(F)F)C[C@H](C)N1C [Example 162, N-[4-fluoro-2-[(3R,5S)-3,4,5-trimethylpiperazin-1-yl]-5-[1-(1,3-thiazol-2-ylmethyl)-3,6-dihydro-2H-pyridin-4-yl]phenyl]-6-oxo-4-(trifluoromethyl)-1H-pyridine-3-carboxamide] |
| 8.23 | C[C@@H]1CN(c2cc(F)c(-c3cnc(N4CCOCC4)nc3)cc2NC(=O)c2c(Cl)cccc2Cl)C[C@H](C)N1C [Example 139, 2,6-dichloro-N-[4-fluoro-5-(2-morpholin-4-ylpyrimidin-5-yl)-2-[(3R,5S)-3,4,5-trimethylpiperazin-1-yl]phenyl]benzamide] |
| 9.25 | C[C@@H]1CN(c2ncc(-c3cc(NC(=O)c4c[nH]c(=O)cc4C(F)F)c(N4CCN(C)[C@@H](C)C4)cc3F)cn2)CCO1 [Example 396, 4-(difluoromethyl)-N-[4-fluoro-2-[(3S)-3,4-dimethylpiperazin-1-yl]-5-[2-[(2R)-2-methylmorpholin-4-yl]pyrimidin-5-yl]phenyl]-6-oxo-1H-pyridine-3-carboxamide] |
| 6.23 | CC1CN(c2cc(F)c(-c3cnc(N4CCOCC4)nc3)cc2NC(=O)c2cc[nH]n2)CCN1C (stereo in doubt) [Example 193, N-[4-fluoro-5-(2-morpholin-4-ylpyrimidin-5-yl)-2-[(3R)-3,4-dimethylpiperazin-1-yl]phenyl]-1H-pyrazole-3-carboxamide] |

| Structure (SMILES) | pKd |
| --- | --- |
| C[C@@H]1CN(c2cc(F)c(-c3cnc(N4C5CCC4CC5)nc3)cc2NC(=O)c2c[nH]c(=O)cc2C(F)(F)F)C[C@H](C)N1C [Example 352, N-[5-[2-(7-azabicyclo[2.2.1]heptan-7-yl)pyrimidin-5-yl]-4-fluoro-2-[(3R,5S)-3,4,5-trimethylpiperazin-1-yl]phenyl]-6-oxo-4-(trifluoromethyl)-1H-pyridine-3-carboxamide] | 8.56 |
| C[C@@H]1CN(c2cc(F)c(-c3ccccc3CNC3CCCCC3)cc2NC(=O)c2c[nH]c(=O)cc2C(F)(F)F)C[C@H](C)N1C [Example 67, N-[5-[2-[(cyclohexylamino)methyl]phenyl]-4-fluoro-2-[(3R,5S)-3,4,5-trimethylpiperazin-1-yl]phenyl]-6-oxo-4-(trifluoromethyl)-1H-pyridine-3-carboxamide] | 8.32 |
| CC1CN(c2cc(F)c(-c3ccc(N4CCOCC4)cc3)cc2NC(=O)c2nn(C)c3ccccc23)CCN1C (stereo in doubt) [Example 117, N-[4-fluoro-5-(4-morpholin-4-ylphenyl)-2-[(3R)-3,4-dimethylpiperazin-1-yl]phenyl]-1-methylindazole-3-carboxamide] | 7.37 |

Same assay, conditions: surface plasmon resonance (SPR); read-out: WDR5 binding affinity (KD)

| pKd | Structure (SMILES) |
| --- | --- |
| 9.04 | C[C@@H]1CN(c2cc(F)c(-c3c[nH]c(=O)c(F)c3)cc2NC(=O)c2c[nH]c(=O)cc2C(F)(F)F)C[C@H](C)N1C [Example 562, N-[4-fluoro-5-(5-fluoro-6-oxo-1H-pyridin-3-yl)-2-[(3R,5S)-3,4,5-trimethylpiperazin-1-yl]phenyl]-6-oxo-4-(trifluoromethyl)-1H-pyridine-3-carboxamide] |
| 7.96 | C[C@@H]1CN(c2ncc(-c3cc(NC(=O)c4cn(C)c(=O)cc4C(F)(F)F)c(N4CC[C@@H](N(C)C)C4)cc3F)cn2)C[C@H](C)O1 (racemic) [Example 426, N-[4-fluoro-2-[(3S)-3-(dimethylamino)pyrrolidin-1-yl]-5-[2-[(2R,6S)-2,6-dimethylmorpholin-4-yl]pyrimidin-5-yl]phenyl]-1-methyl-6-oxo-4-(trifluoromethyl)pyridine-3-carboxamide] |
| 8.25 | C[C@@H]1CN(c2cc(F)c(-c3cnc(N4CCOCC4)s3)cc2NC(=O)c2cn(C)c(=O)cc2C(F)F)C[C@H](C)N1C [Example 623, 4-(difluoromethyl)-N-[4-fluoro-5-(2-morpholin-4-yl-1,3-thiazol-5-yl)-2-[(3R,5S)-3,4,5-trimethylpiperazin-1-yl]phenyl]-1-methyl-6-oxopyridine-3-carboxamide] |
| 8.57 | C[C@@H]1CN(c2cc(F)c(C3=CCCN(C(=O)OC4CC(F)(F)C4)C3)cc2NC(=O)c2c[nH]c(=O)cc2C(F)F)C[C@H](C)N1C [Example 704, (3,3-difluorocyclobutyl) 5-[5-[[4-(difluoromethyl)-6-oxo-1H-pyridine-3-carbonyl]amino]-2-fluoro-4-[(3R,5S)-3,4,5-trimethylpiperazin-1-yl]phenyl]-3,6-dihydro-2H-pyridine-1-carboxylate] |
| 8.31 | C[C@@H]1CN(c2cc(F)c(-c3csc(C(=O)N(C)C4CCCCC4)n3)cc2NC(=O)c2cn(C)c(=O)cc2C(F)(F)F)C[C@H](C)N1C [Example 526, N-cyclohexyl-4-[2-fluoro-5-[[1-methyl-6-oxo-4-(trifluoromethyl)pyridine-3-carbonyl]amino]-4-[(3R,5S)-3,4,5-trimethylpiperazin-1-yl]phenyl]-N-methyl-1,3-thiazole-2-carboxamide] |
| 8.75 | C[C@@H]1CN(c2ccc(-c3cc(NC(=O)c4c[nH]c(=O)cc4C(F)F)c(N4CCN(C)[C@H](C)C4)cc3F)cn2)CCO1 (stereo in doubt) [Example 507, 4-(difluoromethyl)-N-[4-fluoro-2-[(3R)-3,4-dimethylpiperazin-1-yl]-5-[6-[(2R)-2-methylmorpholin-4-yl]pyridin-3-yl]phenyl]-6-oxo-1H-pyridine-3-carboxamide] |
| 8.17 | C[C@@H]1CN(c2cc(F)c(-c3ccc(C(N)=O)c(F)c3)cc2NC(=O)c2cn(C)c(=O)cc2C(F)F)C[C@H](C)N1C [Example 592, N-[5-(4-carbamoyl-3-fluorophenyl)-4-fluoro-2-[(3R,5S)-3,4,5-trimethylpiperazin-1-yl]phenyl]-4-(difluoromethyl)-1-methyl-6-oxopyridine-3-carboxamide] |
| 8.73 | C[C@@H]1CN(c2cc(F)c(-c3cc(F)c(C(N)=O)c(F)c3)cc2NC(=O)c2c[nH]c(=O)cc2C(F)(F)F)C[C@H](C)N1C [Example 658, N-[5-(4-carbamoyl-3,5-difluorophenyl)-4-fluoro-2-[(3R,5S)-3,4,5-trimethylpiperazin-1-yl]phenyl]-6-oxo-4-(trifluoromethyl)-1H-pyridine-3-carboxamide] |
| 8.04 | C[C@@H]1CN(c2cc(F)c(-c3ccc(N4CCOCC4)c(F)c3)cc2NC(=O)c2cn(C)c(=O)cc2C(F)F)C[C@H](C)N1C [Example 449, 4-(difluoromethyl)-N-[4-fluoro-5-(3-fluoro-4-morpholin-4-ylphenyl)-2-[(3R,5S)-3,4,5-trimethylpiperazin-1-yl]phenyl]-1-methyl-6-oxopyridine-3-carboxamide] |
| 8.51 | C[C@@H]1CN(c2cc(F)c(-c3nc(C(=O)NC4CCCCC4)cs3)cc2NC(=O)c2c[nH]c(=O)cc2C(F)(F)F)C[C@H](C)N1C [Example 484, N-Cyclohexyl-2-[2-fluoro-5-[[6-oxo-4-(trifluoromethyl)-1H-pyridine-3-carbonyl]amino]-4-[(3R,5S)-3,4,5-trimethylpiperazin-1-yl]phenyl]-1,3-thiazole-4-carboxamide] |
